The structures appear in SMILES notation.

Results on one compound are retold here after patent US8575376B2, “Steroide anionic compounds, method of their production, usage and pharmaceutical preparation involving them” (Ustav Organicke Chemie A Biochemie Akademie Ved Ceske …, priority 2009, dated 2013).

Series [1] concerns the target T1, recombinant NR1/NR2B receptors (Rattus norvegicus, UniProt P35439+Q00960).
T1 construct: expressed in transfected cells; host or cells: HEK293 cells (ATCC CRL1573)
The experiment in a line: Patch-clamp, inhibition of glutamate responses of recombinant NMDA receptors in transfected HEK293 cells. Type of series: cell-based.

The test system of series [2] is rats. The experiment in a line: Spontaneous locomotor activity in the open-field test. Type of series: in vivo, rat. The note with it: 1 and 10 mg/kg s.c., 30 min before, 30 min session. As for the experimental part:
Animals were tracked with Ethovision Pro system (Noldus, Netherlands) and total path traveled during this session was evaluated. The compound from Example 9 was applied subcutaneously (dissolved in cyclodextrin) 30 min prior to behavioral observations at doses 1 mg/kg a 10 mg/kg; control animals were injected with saline.

Series [3] relates to rats. In words: Prepulse inhibition in MK-801 animal model of schizophrenia. Type of series: in vivo, rat. How it is done:
The effect of i.p. administration of the compound from example 9 at doses of 0.1 and 1 mg/kg on sensorimotor gating in prepulse inhibition (PPI) test was evaluated. All testing occurred within the startle chamber (SR-LAB, San Diego Instruments, USA), which consisted of a clear Plexiglas cylinder (8.2 cm diameter, 10×20 cm) that rested on a piezoelectric accelerometer inside a ventilated and illuminated chamber. The piezoelectric accelerometer detected and transduced motion within the cylinder. A high frequency loudspeaker inside the chamber (24 cm above the animal) produced both a background noise of 62 dB and the acoustic stimuli. All rats were initially tested in a short session (5 min acclimatization period plus 5 single stimuli; 120 dB strong) 2 days before the experiment.
The background noise (62 dB) was presented alone for 5 min (acclimatization period) and then continued throughout the session. […] The PPI was measured as a difference between the average responses to the single pulse and prepulse-pulse trials, and was expressed as a percent of the PPI [100−(mean response for prepulse-pulse trials/startle response for single pulse trials)×100]. […]

The subject of series [4] is rats. The experiment in a line: Open-field locomotion in MK-801 animal model of schizophrenia. Type of series: in vivo, rat. How it is done: The effect of the compound from example 9 in doses of 0.1 mg/kg and 1 mg/kg on locomotor activity in open field test was evaluated. Locomotor activity expressed as a total distance travelled during 30 min exploration of a box (68×68×30 cm) located in a sound proof room was measured using a video tracking system for automation of the behavioural experiments (Noldus, EthoVision, Version 2.1.).

The test system of the next series is Long-Evans rats. The experiment in a line: Scopolamine-induced cognitive deficit in AAPA (model of Alzheimer disease). Type of series: in vivo, rat. Conditions: Example 9 1 ml/kg of 1.0 mg/ml i.p. + scopolamine 2.0 mg/kg. How it is done:
The effect of the compound from example 9 on an animal model of age-related cognitive decline and neurodegenerative disorders (including Alzheimer disease) is documented. In the present experiment the effect of central muscarinic blockade by systemic administration of scopolamine at dose 2.0 mg/kg on both reinforced retention of the AAPA and re-acquisition of the AAPA in a new environment was investigated (by the standard method described previously; see Vales and Stuchlik, 2005).
The compound from example 9 was dissolved in β-cyclodextrine (at a concentration of 1.0 mg/ml). Animals were injected intraperitoneally with 1 ml/kg b.w. of this solution or with 1 ml/kg b.w. of β-cyclodextrine. All animals thus received the same volume of liquid per body weight in each injection. Injections were delivered 40 min prior to behavioural testing). Scopolamine hydrobromide (scopolamine; Sigma Aldrich) was dissolved in saline (0.9% NaCl, 2.0 mg/ml). Animals were injected intraperitoneally with 1 ml/kg b.w. of this solution or with 1 ml/kg b.w. of saline. All animals thus received the same volume of liquid per body weight in each injection. Injections were delivered 20 min prior to behavioural testing. Adult male hooded rats of the Long-Evans strain (3 months old; weighing 300-400g) was used.
The active allothetic place avoidance apparatus is described in example 28. […]

Another series is described as follows: Neuropathic pain model. Type of series: in vivo. Conditions: no data shown.

T1 sequence (Q00960 27-1482, other chains not shown): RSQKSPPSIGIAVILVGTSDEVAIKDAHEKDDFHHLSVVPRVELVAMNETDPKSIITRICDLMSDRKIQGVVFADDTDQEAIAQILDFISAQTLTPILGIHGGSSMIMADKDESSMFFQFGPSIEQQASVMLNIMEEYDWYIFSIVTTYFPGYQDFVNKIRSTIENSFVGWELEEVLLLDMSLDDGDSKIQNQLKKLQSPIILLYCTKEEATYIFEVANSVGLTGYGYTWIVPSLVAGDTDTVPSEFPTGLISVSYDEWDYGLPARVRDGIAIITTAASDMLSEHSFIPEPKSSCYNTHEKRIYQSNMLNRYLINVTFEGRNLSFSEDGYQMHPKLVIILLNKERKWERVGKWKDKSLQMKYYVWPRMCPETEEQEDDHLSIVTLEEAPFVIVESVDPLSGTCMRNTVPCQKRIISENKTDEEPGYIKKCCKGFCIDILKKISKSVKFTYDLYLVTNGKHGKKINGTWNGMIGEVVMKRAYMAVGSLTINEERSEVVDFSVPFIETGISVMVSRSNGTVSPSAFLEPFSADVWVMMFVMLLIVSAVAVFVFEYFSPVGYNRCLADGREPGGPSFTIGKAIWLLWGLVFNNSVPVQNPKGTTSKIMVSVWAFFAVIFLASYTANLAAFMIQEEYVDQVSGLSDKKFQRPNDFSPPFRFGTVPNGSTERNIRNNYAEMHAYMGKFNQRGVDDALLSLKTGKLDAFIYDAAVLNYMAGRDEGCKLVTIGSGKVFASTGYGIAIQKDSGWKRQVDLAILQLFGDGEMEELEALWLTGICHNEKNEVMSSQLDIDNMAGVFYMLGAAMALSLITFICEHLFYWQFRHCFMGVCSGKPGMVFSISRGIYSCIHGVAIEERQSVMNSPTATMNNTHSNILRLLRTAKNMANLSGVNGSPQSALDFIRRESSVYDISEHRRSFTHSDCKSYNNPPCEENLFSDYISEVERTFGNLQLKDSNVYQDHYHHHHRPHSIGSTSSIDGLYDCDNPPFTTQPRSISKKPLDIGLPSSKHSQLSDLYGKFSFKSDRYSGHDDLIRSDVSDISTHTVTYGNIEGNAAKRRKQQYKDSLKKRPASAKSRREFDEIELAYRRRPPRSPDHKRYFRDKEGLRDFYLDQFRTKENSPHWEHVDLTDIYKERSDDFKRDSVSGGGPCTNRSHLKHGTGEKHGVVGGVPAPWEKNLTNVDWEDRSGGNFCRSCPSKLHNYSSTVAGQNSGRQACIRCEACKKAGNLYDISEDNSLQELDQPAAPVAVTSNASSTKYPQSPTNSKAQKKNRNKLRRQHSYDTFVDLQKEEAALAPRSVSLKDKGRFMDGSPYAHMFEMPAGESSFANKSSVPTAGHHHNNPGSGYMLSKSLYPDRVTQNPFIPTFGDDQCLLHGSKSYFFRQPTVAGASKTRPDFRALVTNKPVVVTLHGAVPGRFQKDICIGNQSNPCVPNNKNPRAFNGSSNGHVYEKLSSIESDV

For the compound `CC(=O)[C@H]1CC[C@H]2[C@@H]3CC[C@@H]4C[C@H](OC(=O)[C@@H](N)CCC(=O)O)CC[C@]4(C)[C@H]3CC[C@]12C` [Example 9, 20-Oxo-5β-pregnan-3α-yl L-glutamyl 1-ester], in series [1] (calculated from relative inhibition with Hill's coefficient 1.2), the IC50 was 73 µM. In addition, in series [1] (responses to 1 mM glutamate, -60 mV, HEK293 NR1-1a/NR2B, steroid 50, 100 or 200 μM), the “Relative inhibition effect (%)” value turned out to be 77.1 ± 5.2%. Besides, the “total distance traveled in the open-field session (spontaneous locomotor activity)” value in the series with rats [2] is “did not significantly alter the spontaneous locomotor activity”. Also, the “prepulse inhibition deficit induced by MK-801” value in the series on rats [3] (Example 9 0.1 or 1 mg/kg i.p. co-administered with MK-801 0.1 mg/kg) is reported as “blocked the exacerbating effect of MK-801”. In addition, the prepulse inhibition result in the series with rats [3] (Example 9 alone, 0.1 and 1 mg/kg i.p.) was “had no influence on prepulse inhibition”. Also, in the series on rats [4] (Example 9 0.1 or 1 mg/kg + MK-801 0.1 mg/kg), the “hyperlocomotion induced by MK-801 in open field” value is “has not effect on hyperlocomotion state induced by MK-801”. Further, in the series on rats [4] (substance alone, Example 9 0.1 and 1 mg/kg, MK-801 0.1 mg/kg), the “locomotion in open field (total distance, 30 min)” value is given as “did not produce locomotor alterations in the open-field test”. Moreover, the “scopolamine-induced deficit in AAPA (number of entrances)” value in the series on Long-Evans rats was “tends to be decreased”. Further, the “action on the neuropathic pain model” value in “Neuropathic pain model” is reported as “Beneficial action”.

Broadly, the IC50 is the point on the concentration scale where inhibition reaches its midpoint.
